Data as given in patent publication EP0372667A1, “2-Hydroxymethyl thiophene derivatives, process for their preparation and their use as medicaments” (SCHERING AKTIENGESELLSCHAFT, priority 1988, dated 1990).
Where a name gives a salt, the structure may show the parent alone.

Legend:
[1] = system: narkotisierten, normtensiven Hunden; experiment: Blood pressure and heart rate in anaesthetised normotensive dogs; assay type: in vivo, Beagle-Hunde; settings: anaesthetised normotensive dog, at a dose giving a similar fall in blood pressure; text summary of Tabelle 2
Text: (§1) Die Messungen von Blutdruck und Herzfrequenz wurden an der spontan hypertensiven Ratte und am narkotisierten, normotensiven Hund durchgeführt (siehe Tabelle 1 und 2).

[2] = system: wachen, spontan hypertensiven Ratten; experiment: Blood pressure and heart rate in conscious spontaneously hypertensive rats; settings: in vivo
Text: as §1

Row | SMILES | Herzfrequenz (result in words) [1] | Herzfrequenz (result in words) [2]
1 | O=C1c2cc(CO)sc2CCC1CN[C@@H]1CC[C@@H](Oc2ccccc2)[C@@H]1O (relative stereo) [Beispiel 1, 5-[N-((Z)-2-Hydroxy-(E)-3-phenoxy-cyclopentyl)-aminomethyl]-4,5,6,7-tetrahydro-2-hydroxymethyl-benzothiophen-4-on, Hydrochlorid] | praktisch keine Herzfrequenzänderung | Herzfrequenzerniedrigung
2 | Cc1cc2c(s1)CCC(CN[C@@H]1CC[C@@H](Oc3ccccc3)[C@@H]1O)C2=O (relative stereo) [MDL 19744 A] | ausgeprägten Herzfrequenzsteigerung | ausgeprägten Herzfrequenzsteigerung
